Key:
[1] = test system: post-myocardial infarction rabbits; assay: Chronic xanthine oxidase inhibition following myocardial infarction (permanent coronary artery ligation) in rabbits; assay type: in vivo; details: for Heart Weight / Heart/Body Weight Ratio: Day 49; for EDV / EF (ejection fraction) / LVIDd / LVIDs / LVPWd / LVPWs / SF (shortening fraction): baseline (Day 0, pre-surgery, before dosing); for Ejection fraction (percent change from baseline) versus vehicle/control / Shortening fraction (percent change from baseline) versus vehicle/control: delayed treatment (from Day 22)
Excerpt: • Animals Male New Zealand white rabbits (1-2 kg; Clerco Research Farms, Cincinnati, Ohio, USA) were housed in separate cages in an environmentally controlled facility. The animals were subjected to circadian light-dark cycles, maintained on standard rabbit chow (2030C, Harlan Teklad, Madison, Wis., USA) and provided water ad libitum.
The procedures used in this study were reviewed and approved by the Institutional Animal Care and Use Committee (IACUC) of QTest Labs for compliance with regulations and current accepted practices. All applicable sections of the Final Rules of the Animal Welfare Act regulations (Section 9 CFR) and the Public Health Service Policy on Humane Care and Use of Laboratory Animals (OPRR, NIH, 1986) were followed. At the end of the study, all animals were humanely euthanized in accordance with accepted guidelines of the American Veterinary Medical Association (See, American Veterinary Medicine Association (AVMA), 2000 Report of the AVMA Panel on Euthanasia, The Journal of the American Veterinary Medical Association, 218(5):669-696 (2001)). • Drugs Febuxostat and allopurinol (Sigma-Aldrich, St. Louis, Mo., USA) were each formulated as a suspension in 0.5% methylcellulose (Sigma-Aldrich, St. Louis, Mo.) as the vehicle. […] Allopurinol was given orally at 60 mg/kg. […] The rabbits were anesthetized with an intramuscular injection of ketamine (35 mg/kg)/xylazine (5 mg/kg) and pre-surgery enrofloxacin (12 mg/kg). Isoflurane (1-2%) was given during the surgery as required to maintain a deep level of anesthesia and the animals were allowed to breathe 100% oxygen. A limb lead electrocardiogram (ECG) was obtained to monitor sinus rhythm, heart rate, and J-point deviation. The rabbit was placed in dorsal recumbency, and the sternum was exposed by blunt dissection and then incised with scissors. […] Myocardial ischemia was confirmed by regional cyanosis of the myocardial surface and ST-segment elevation on the ECG. The sternum was closed, leaving the pericardial sac as it was. The muscle layers, subcutaneous layer and skin were then closed. Ketofen (1 mg/kg) and buprenorphine (0.03 mg/kg/8 hour) were administered subcutaneously, and the rabbits were placed on a heating pad, covered with a towel, and observed continuously until awake. Post-operative medications given subcutaneously to the rabbits included enrofloxacin (12 mg/kg, b.i.d.), ketofen (0.03 mg/kg, b.i.d.), and buprenorphine ([…], t.i.d. to q.i.d.) for 1 to 3 days as needed. • Experimental Procedures Rabbits were surgically altered (Day 0) to produce MI-induced heart failure and assigned to one of four treatment groups: the vehicle/control group (n=8) received vehicle for 49 consecutive days (7 weeks), the febuxostat/early treatment group (n=8) received febuxostat (10 mg/kg) for 49 consecutive days (7 weeks), the febuxostat/delayed treatment group (n=7) received vehicle for 21 consecutive days (3 weeks) and then febuxostat (10 mg/kg) starting on Day 22 (3 weeks post-surgery) for 28 consecutive days (4 weeks), and the allopurinol/delayed treatment group (n=8) received vehicle for 21 consecutive days and then allopurinol (60 mg/kg) starting on Day 22 (3 weeks post-surgery) for 28 consecutive days (4 weeks). All treatments were started on Day 1 (i.e. the day after surgery) and administered by oral gavage (2 mL/kg). The animals were fasted overnight prior to each day of dosing.
On Day 0 (baseline, pre-surgery), and on Days 21 (end of week 3) and 49 (end of week 7) at approximately one hour after dosing, the rabbits were sling restrained for ECG acquisition.

[2] = test system: enzymes involved in purine and pyrimidine metabolism; details: Takano et al., Life Sciences 2005; cited from earlier work
[3] = delayed treatment: vehicle 21 days then oral FBS 10 mg/kg/day or AL 60 mg/kg/day for 28 days
[4] = early treatment: FBS 10 mg/kg/day oral for 49 days from 1 day after coronary occlusion
[5] = early treatment from one day after ligation, Day 21, still apparent on Day 49

For `Cc1nc(-c2ccc(OCC(C)C)c(C#N)c2)sc1C(=O)O` [febuxostat, 2-[3-cyano-4-(2-methylpropoxy)phenyl]-4-methylthiazole-5-carboxylic acid], which “Heart Weight” value [1, 3] is on record?
Its value is 6.65 ± 0.27 g.

What about the “Heart/Body Weight Ratio” value [1, 3] of the same compound?
The value was 0.28 ± 0.01%.

And the “Heart Weight” value [1, 4]?
Its value is “small trend toward a lower”.

And the “Heart/Body Weight Ratio” value [1, 4]?
Its value is 0.25 ± 0.01%.

And the “Heart Weight” value ([1]; early treatment: FBS 10 mg/kg/day oral for 49 days from 1 day after coronary occlusion, listed as FBS)?
The value was 6.38 ± 0.19 g.

What about the EDV ([1]; delayed treatment group) of the same compound?
The EDV was 1.42 ± 0.13 mL.

What about the “EF (ejection fraction)” value ([1]; delayed treatment group) of the same compound?
The value was 71 ± 1.7%.

And the LVIDd ([1]; delayed treatment group)?
Its LVIDd is 1.11 ± 0.04 cm.

What about the LVIDs ([1]; delayed treatment group) of the same compound?
Its LVIDs is 0.70 ± 0.02 cm.

What about the LVPWd ([1]; delayed treatment group) of the same compound?
The LVPWd was 0.32 ± 0.02 cm.

What about the LVPWs ([1]; delayed treatment group) of the same compound?
Its LVPWs is 0.44 ± 0.02 cm.

What about the “SF (shortening fraction)” value ([1]; delayed treatment group) of the same compound?
The value was 36 ± 1.2%.

And the EDV ([1]; early treatment group)?
The EDV was 1.94 ± 0.25 mL.

What about the “EF (ejection fraction)” value ([1]; early treatment group) of the same compound?
Its value is 68 ± 1.8 %.

What about the LVIDd ([1]; early treatment group) of the same compound?
The LVIDd was 1.25 ± 0.04 cm.

What about the LVIDs ([1]; early treatment group) of the same compound?
The LVIDs was 0.82 ± 0.03 cm.

And the LVPWd ([1]; early treatment group)?
Its LVPWd is 0.26 ± 0.02 cm.

What about the LVPWs ([1]; early treatment group) of the same compound?
Its LVPWs is 0.49 ± 0.02 cm.

What about the “SF (shortening fraction)” value ([1]; early treatment group) of the same compound?
The value was 34 ± 1.4 %.

And the “Ejection fraction (percent change from baseline) versus vehicle/control” value ([1]; Days 21 and 49)?
Its value is “not significantly different”.

What about the “Shortening fraction (percent change from baseline) versus vehicle/control” value ([1]; Days 21 and 49) of the same compound?
The value was “not significantly different”.

What about the “Reduction of ejection fraction (percent change from baseline) versus vehicle/control” value [1, 5] of the same compound?
The value was “significantly lessened”.

What about the “Reduction of shortening fraction (percent change from baseline) versus vehicle/control” value [1, 5] of the same compound?
The value was “significantly lessened”.

What about the “Increase in LVIDd versus vehicle/control” value ([1]; early treatment, Day 21) of the same compound?
The value was “less of an increase”.

What about the “Increase in end diastolic volume versus vehicle/control” value ([1]; early treatment, Day 21) of the same compound?
Its value is “less of an increase”.

What about the “Increase in LVIDs versus vehicle/control” value ([1]; early treatment, Day 21, reaching statistical significance) of the same compound?
The value was “less of an increase”.

And the “Left ventricular posterior wall dimension during diastole, change from baseline” value ([1]; early treatment, Days 21 and 49)?
The value was “no reduction”.

What about the “Cross-inhibition on other purine and pyrimidine metabolism enzymes such as purine nucleoside phosphorylase and orotidine-5′-monophosphate decarboxylase” value [2] of the same compound?
Its value is “avoids the cross-inhibition”.

Which “Heart Weight” value [1, 3] does the source give for `Oc1ncnc2[nH]ncc12` [allopurinol] here?
Its value is 6.59 ± 0.30 g.

What about the “Heart/Body Weight Ratio” value [1, 3] of the same compound?
Its value is 0.24 ± 0.01%.

And the EDV ([1]; delayed treatment group)?
Its EDV is 2.21 ± 0.21 mL.

And the “EF (ejection fraction)” value ([1]; delayed treatment group)?
The value was 74 ± 1.9%.

And the LVIDd ([1]; delayed treatment group)?
Its LVIDd is 1.29 ± 0.05 cm.

And the LVIDs ([1]; delayed treatment group)?
Its LVIDs is 0.77 ± 0.03 cm.

And the LVPWd ([1]; delayed treatment group)?
Its LVPWd is 0.31 ± 0.02 cm.

What about the LVPWs ([1]; delayed treatment group) of the same compound?
The LVPWs was 0.46 ± 0.02 cm.

What about the “SF (shortening fraction)” value ([1]; delayed treatment group) of the same compound?
Its value is 40 ± 1.7%.

And the “Ejection fraction (percent change from baseline) versus vehicle/control” value ([1]; Days 21 and 49)?
The value was “not significantly different”.

What about the “Shortening fraction (percent change from baseline) versus vehicle/control” value ([1]; Days 21 and 49) of the same compound?
Its value is “not significantly different”.

What about the “Cross-inhibition on other purine and pyrimidine metabolism enzymes such as purine nucleoside phosphorylase and orotidine-5′-monophosphate decarboxylase” value [2] of the same compound?
The value was “cross-inhibition”.

Reference: patent US20100311756A1, “METHODS FOR DELAYING THE PROGRESSION OF AT LEAST ONE OF CARDIAC HYPERTROPHY, CARDIAC REMODELING OR LEFT VENTRICULAR FUNCTION OR THE ONSET OF HEART FAILURE IN SUBJECTS IN NEED OF TREATMENT THEREOF” (TAKEDA PHARMACEUTICALS NORTH AMERICA, INC., priority 2009, published 2010)
